Measured values reported in PubChem BioAssay AID720587 (Broad Institute, 2013).
Active and inactive are the calls of the source.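 How the source made its calls: active means fitted curve reaches -35% activity change at a concentration below twice the top valid dose tested; inactive means the rest, including effects opposite to the expected direction.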

Assay: A673 Ewing sarcoma viability loss – cell-based, CellTiter-Glo luminescence, cherry-pick retest, confirmation (AID 720587)
Conditions: A673 Ewing sarcoma viability, CellTiter-Glo ATP luminescence, 72 h; at 23.5 µM (top of the series)

**Q.** Which activity change, negative = cytotoxicity does the source give for `N#C[C@H]1[C@H](c2ccc(C#Cc3ccccc3F)cc2)[C@@H](CO)N1C(=O)C1CCCCC1` here?
**A.** -7.62% (inactive)

**Q.** For `COC(=O)C[C@@H]1CC[C@@H]2[C@H](COc3ccc(NC(=O)c4cccc(Cl)c4)cc3C(=O)N2C)O1`, which activity change, negative = cytotoxicity is on record?
**A.** -7.39% (inactive)

**Q.** Which activity change, negative = cytotoxicity does the source give for `COC(=O)C[C@@H]1CC[C@@H]2[C@H](COc3ccc(NC(=O)c4cccc(F)c4)cc3C(=O)N2C)O1` here?
**A.** -1.57% (inactive)

**Q.** With `N#C[C@H]1N[C@H](CO)[C@H]1c1ccc(C#Cc2ccccc2F)cc1` as the compound, how does the activity change, negative = cytotoxicity read?
**A.** 3.42% (inactive)

Same assay, conditions: A673 Ewing sarcoma viability, CellTiter-Glo ATP luminescence, 72 h; at 26 µM (top of the series)

**Q.** Which activity change, negative = cytotoxicity does the source give for `COCc1cc(C)nc2sc(C(=O)NCCO)c(-n3cccc3)c12` here?
**A.** 13.2% (inactive)

**Q.** Which activity change, negative = cytotoxicity does the source give for `COc1ccc(NC(=O)N(C)[C@H]2C[C@H]3c4[nH]c5ccccc5c4CCN3C(=O)[C@H]2CO)cc1` here?
**A.** 5.76% (inactive)

**Q.** For `CCOC(=O)Cc1csc(NC(=S)NC(=O)c2ccc(C)cc2)n1`, which activity change, negative = cytotoxicity is on record?
**A.** -1.19% (inactive)

**Q.** For `C(=C\c1ccc(C2[C@H]3CNC[C@@H]2N3Cc2ccccn2)cc1)/c1ccccc1` (stereo partly specified), which activity change, negative = cytotoxicity is on record?
**A.** -3.03% (inactive)

**Q.** With `Cc1noc(C)c1NC(=O)Nc1ccc2c(c1)CC(=O)N([C@@H](C)CO)C[C@@H](C)[C@@H](CN(C)Cc1ccc(Cl)c(Cl)c1)O2` as the compound, how does the activity change, negative = cytotoxicity read?
**A.** 0.825% (inactive)

**Q.** With `CCCc1cc(=O)oc2c3c(c4c(c12)OC(C)(C)C=C4)OC(C)C(C)C3O` (stereo unspecified) as the compound, how does the activity change, negative = cytotoxicity read?
**A.** -3.35% (inactive)

**Q.** With `COc1ccc(/C=C2\SC(=O)N(CCCC(=O)Nc3cc(Cl)ccc3C(=O)O)C2=O)cc1` as the compound, how does the activity change, negative = cytotoxicity read?
**A.** 1.72% (inactive)

**Q.** With `CC(=O)N1CCCC(c2cc(C(=O)Nc3ccccc3)no2)C1` (stereo unspecified) as the compound, how does the activity change, negative = cytotoxicity read?
**A.** 9.56% (inactive)

**Q.** With `C/C(=N\Nc1cccc2cccnc12)c1ccccn1` as the compound, how does the activity change, negative = cytotoxicity read?
**A.** -0.624% (inactive)

**Q.** With `CC(=O)c1ccc(N=C2C(=O)Nc3ccccc32)cc1` as the compound, how does the activity change, negative = cytotoxicity read?
**A.** -4.29% (inactive)

**Q.** For `Cc1ccc(/C=C2\SC(=S)N(CCC(=O)NNC(=O)c3ccccc3O)C2=O)cc1`, which activity change, negative = cytotoxicity is on record?
**A.** 6.17% (inactive)

**Q.** For `CN(C)Cc1c(O)ccc2c1O/C(=C\C=C\c1ccccc1)C2=O`, which activity change, negative = cytotoxicity is on record?
**A.** -7.01% (inactive)

**Q.** For `Cc1ccc(/C=C/C(=O)N2CCN(S(=O)(=O)c3c(C)c(C)cc(C)c3C)CC2)o1`, which activity change, negative = cytotoxicity is on record?
**A.** 4.87% (inactive)

**Q.** With `Cc1ccc(NC(=O)CCN2CCCCC2)cc1` as the compound, how does the activity change, negative = cytotoxicity read?
**A.** 12.4% (inactive)

**Q.** With `COC(=O)Cc1[nH]n(-c2nc3ccccc3s2)c(=O)c1C(C)=Nc1ccc(C)cc1` as the compound, how does the activity change, negative = cytotoxicity read?
**A.** -10.7% (inactive)

**Q.** For `O=C1CCC2S/C(=C/Nc3ccc(C(F)(F)F)cc3)C(=O)N12` (stereo unspecified), which activity change, negative = cytotoxicity is on record?
**A.** -2.74% (inactive)

**Q.** With `CCCCOc1ccc(NC(=O)C(=O)NCCCn2ccnc2)cc1` as the compound, how does the activity change, negative = cytotoxicity read?
**A.** -2.77% (inactive)

**Q.** Which activity change, negative = cytotoxicity does the source give for `Cc1ccsc1/C=N/Nc1ccc(C(=O)O)cc1` here?
**A.** 5.43% (inactive)

**Q.** For `C[C@@H]1CN([C@@H](C)CO)S(=O)(=O)c2ccc(C#CCN(C)C)cc2O[C@@H]1CN(C)Cc1ccncc1`, which activity change, negative = cytotoxicity is on record?
**A.** -10.8% (inactive)

**Q.** With `O=C(Nc1nc(-c2ccc(F)c(F)c2)cs1)c1ccc(OCC2CCCO2)cc1` (stereo unspecified) as the compound, how does the activity change, negative = cytotoxicity read?
**A.** 5.7% (inactive)

**Q.** Which activity change, negative = cytotoxicity does the source give for `N/C(Cc1nc(-c2ccc(F)cc2)cs1)=N\O` here?
**A.** -2.03% (inactive)

**Q.** Which activity change, negative = cytotoxicity does the source give for `CN(C)[C@@H]1CCC[C@@H]1OC(=O)C(c1ccccc1)c1ccccc1` here?
**A.** -2.99% (inactive)

**Q.** For `CCN(CC)C(=O)CN1C(=O)C(=O)c2ccccc21`, which activity change, negative = cytotoxicity is on record?
**A.** -0.157% (inactive)

**Q.** For `Cc1noc(C)c1NC(=O)Nc1ccc2c(c1)CC(=O)N([C@H](C)CO)C[C@@H](C)[C@@H](CN(C)Cc1ccc(Cl)c(Cl)c1)O2`, which activity change, negative = cytotoxicity is on record?
**A.** 7.25% (inactive)

**Q.** Which activity change, negative = cytotoxicity does the source give for `Nc1ccc2oc(-c3cc(Br)ccc3Cl)nc2c1` here?
**A.** 2.05% (inactive)

**Q.** Which activity change, negative = cytotoxicity does the source give for `N#C[C@@H]1[C@H](c2ccc(C#Cc3cccc(F)c3)cc2)[C@@H](CO)N1C(=O)C1CCCC1` here?
**A.** -2.07% (inactive)

**Q.** With `Cc1[nH]c(=S)sc1Cc1ccc(Cl)c(Cl)c1` as the compound, how does the activity change, negative = cytotoxicity read?
**A.** 5.33% (inactive)
